Experimental data published in US10143678B1, “Method of treatment of preventing hyperglycemia complications” (Sunway Biotech Co., LTD, priority 2015, dated 2018).
Marks after values point to notes of the source that are not given here.

What was measured:
Assay type in all cases: in vivo
[1] = test system: adiponectin; test: Adiponectin expression in adipose tissue; settings: FIG. 3, vs HFFD group; HFFD-fed SD rats, oral 10 weeks; 1-fold dose mg/kg bw/day: MF 78.06, RMD 104.17, Monascin 0.31 (MS1X), Ankaflavin 0.16 (AK1X), MS-AK 0.31 + 0.16
Excerpt: (§1) The present invention provides a method of treatment of preventing hyperglycemia complications using at least one pharmaceutical made from a red mold product, wherein the red mold product is a red mold rice or a red mold Dioscorea, and the pharmaceutical is an extract obtained from the red mold product. The extract is Monascin, Ankaflavin, or a combination of Monascin and Ankaflavin. […] Moreover, in order to verify the practicability of the method of treatment of preventing hyperglycemia complications proposed by the present invention, a particularly-arranged of animal experiment is completed by inventors. After 1-week pre-feeding, several SD rats are divided into 9 experimental groups for carrying out 10-week animal experiment.

[2] = test system: GLUT-4; test: GLUT-4 expression in adipose tissue; settings: FIG. 7, vs HFFD group; HFFD-fed SD rats, oral 10 weeks; 1-fold dose mg/kg bw/day: MF 78.06, RMD 104.17, Monascin 0.31 (MS1X), Ankaflavin 0.16 (AK1X), MS-AK 0.31 + 0.16
Excerpt: as §1

[3] = test system: Reactive Oxygen Species (ROS); test: ROS concentration in liver; settings: FIG. 4, vs HFFD group; HFFD-fed SD rats, oral 10 weeks; 1-fold dose mg/kg bw/day: MF 78.06, RMD 104.17, Monascin 0.31 (MS1X), Ankaflavin 0.16 (AK1X), MS-AK 0.31 + 0.16
Excerpt: as §1

[4] = test system: SD rats fed with high fat and fructose diet; test: Histomorphology of liver slices (fatty liver); settings: FIG. 11, vs HFFD group, oral 10 weeks, 1-fold dose mg/kg bw/day: MF 78.06, RMD 104.17, Monascin 0.31 (MS1X), Ankaflavin 0.16 (AK1X), MS-AK 0.31 + 0.16
Excerpt: as §1

[5] = test system: GLUT-2; test: GLUT-2 expression in adipose tissue; settings: FIG. 6, vs HFFD group; HFFD-fed SD rats, oral 10 weeks; 1-fold dose mg/kg bw/day: MF 78.06, RMD 104.17, Monascin 0.31 (MS1X), Ankaflavin 0.16 (AK1X), MS-AK 0.31 + 0.16
Excerpt: as §1

[6] = test system: SD rats fed with high fat and fructose diet; test: Oral glucose tolerance test (OGTT), AUC of blood glucose; settings: FIG. 2, vs HFFD group, oral 10 weeks, 1-fold dose mg/kg bw/day: MF 78.06, RMD 104.17, Monascin 0.31 (MS1X), Ankaflavin 0.16 (AK1X), MS-AK 0.31 + 0.16
Excerpt: as §1

[7] = test system: SD rats fed with high fat and fructose diet; test: Liver, kidney and adipose tissue weight after sacrifice; settings: HFFD-fed SD rats, oral 10 weeks
Excerpt: as §1
Insulin is used for impelling the absorption and utilization of blood glucose in liver, muscle and adipose tissue. Because white adipose tissue (WAT) is used for storing triglycerides (TG) transformed from blood glucose, a large amount of accumulation of adipocytes would cause the occurrence of inflammatory response so as to induce lipolysis action. Therefore, the inflammatory-induced lipolysis action would produce a large amount of glycerin and free fatty acid (FFA), so as to aggravate the production of Hyperglycemia, fatty liver, and high blood ketone. Based on above reasons, the effects provided by the different test samples on liver, kidney, and adipose tissue weight of the rats are needed to be determined.
For carrying out the determination of liver, kidney, and adipose tissue weight, it needs to sacrifice the rats. After sacrificing the rat, blood to be determined is collected from the intraperitoneal of the rat by using syringes, and then the collected blood are disposed into a 2-mL microcentrifuge tube. After staying for 5 minutes, the microcentrifuge tube carrying with blood is treated with a centrifugation process, and then the serum of the blood is stored in an environment with −20° C. After that, the liver, kidney, and adipose tissue are taken out of the rat.

[8] = test system: IL-1β; test: IL-1β expression in adipose tissue; settings: FIG. 9, vs HFFD group; HFFD-fed SD rats, oral 10 weeks; 1-fold dose mg/kg bw/day: MF 78.06, RMD 104.17, Monascin 0.31 (MS1X), Ankaflavin 0.16 (AK1X), MS-AK 0.31 + 0.16
Excerpt: as §1
(§2) Please refer to FIG. 8 and FIG. 9, where a statistical bar graph of IL-6 expression in adipose tissue and a statistical bar graph of IL-1β expression in adipose tissue are provided.

[9] = test system: TNF-α; test: TNF-α expression in adipose tissue; settings: FIG. 5, vs HFFD group; HFFD-fed SD rats, oral 10 weeks; 1-fold dose mg/kg bw/day: MF 78.06, RMD 104.17, Monascin 0.31 (MS1X), Ankaflavin 0.16 (AK1X), MS-AK 0.31 + 0.16
Excerpt: as §1

[10] = test system: HIF-1α; test: HIF-1α expression in adipose tissue; settings: FIG. 10, vs HFFD group; HFFD-fed SD rats, oral 10 weeks; 1-fold dose mg/kg bw/day: MF 78.06, RMD 104.17, Monascin 0.31 (MS1X), Ankaflavin 0.16 (AK1X), MS-AK 0.31 + 0.16
Excerpt: as §1

[11] = test system: IL-6; test: IL-6 expression in adipose tissue; settings: FIG. 8, vs HFFD group; HFFD-fed SD rats, oral 10 weeks; 1-fold dose mg/kg bw/day: MF 78.06, RMD 104.17, Monascin 0.31 (MS1X), Ankaflavin 0.16 (AK1X), MS-AK 0.31 + 0.16
Excerpt: as §1, §2

[12] = 1-fold dose mg/kg bw/day: MF 78.06, RMD 104.17, Monascin 0.31 (MS1X), Ankaflavin 0.16 (AK1X), MS-AK 0.31 + 0.16
[13] = 5-fold dose mg/kg bw/day: Monascin 1.56 (MS5X), Ankaflavin 0.78 (AK5X)

Row | SMILES | percentage of adiponectin expression in adipose tissue [1] | percentage of GLUT-4 expression in adipose tissue [2] | ROS level in liver [3] | formation of fatty liver [4] | percentage of GLUT-2 expression in adipose tissue [5] | AUC (area under curve) of blood glucose [6] | Kidney weight [7, 12] | Occupying percentage of summation of the weights of peri-adrenal and epididymal adipose tissue in body Fat [7, 12] | percentage of IL-1β expression in adipose tissue [8] | percentage of TNF-α expression in adipose tissue [9] | percentage of HIF-1α expression in adipose tissue [10] | percentage of IL-6 expression in adipose tissue [11] | Kidney weight [7, 13] | Occupying percentage of summation of the weights of peri-adrenal and epididymal adipose tissue in body Fat [7, 13]
1 | CN(C)C(=N)N=C(N)N [MF, Metformin] | largely enhanced | largely enhanced | largely lowered | alleviated or solved | largely enhanced | obviously lower | 3.64 ± 0.26^ab | 4.27 ± 1.43^bc % | largely lowered | largely reduced | largely lowered | largely lowered |  | 
2 | C/C=C/C1=CC2=C(CO1)C(=O)[C@]1(C)OC(=O)[C@H](C(=O)CCCCCCC)[C@H]1C2 [Ankaflavin] |  |  |  |  |  |  | 3.72 ± 0.31^ab | 4.32 ± 0.59^b % |  |  |  |  | 3.55 ± 0.29^ab | 4.30 ± 0.53^b %
3 | C/C=C/C1=CC2=C(CO1)C(=O)[C@]1(C)OC(=O)[C@H](C(=O)CCCCC)[C@H]1C2 [Monascin] |  |  |  |  |  |  | 3.61 ± 0.20^ab | 5.12 ± 0.84^bc % |  |  |  |  | 3.71 ± 0.40^ab | 4.97 ± 0.80^bc %
